Test results taken from ChEMBL document CHEMBL4507297, “Data for DCP probe PF-04457845” (2021).

Tests used:
[1] = biological target: Non-receptor tyrosine-protein kinase TNK1 (Homo sapiens) (UniProt Q13470); details: Compound concentration 1000.0 nM
[2] = tested on: Mast/stem cell growth factor receptor Kit (Homo sapiens), P10721 [V559D]; details: Compound concentration 1000.0 nM
[3] = biological target: Tyrosine-protein kinase Mer (Homo sapiens) (UniProt Q12866); details: Compound concentration 1000.0 nM
[4] = biological target: Serine/threonine-protein kinase TNNI3K (Homo sapiens) (UniProt Q59H18); details: Compound concentration 1000.0 nM
Serine/threonine-protein kinase TNNI3K (Homo sapiens), sequence (Q59H18 whole entry): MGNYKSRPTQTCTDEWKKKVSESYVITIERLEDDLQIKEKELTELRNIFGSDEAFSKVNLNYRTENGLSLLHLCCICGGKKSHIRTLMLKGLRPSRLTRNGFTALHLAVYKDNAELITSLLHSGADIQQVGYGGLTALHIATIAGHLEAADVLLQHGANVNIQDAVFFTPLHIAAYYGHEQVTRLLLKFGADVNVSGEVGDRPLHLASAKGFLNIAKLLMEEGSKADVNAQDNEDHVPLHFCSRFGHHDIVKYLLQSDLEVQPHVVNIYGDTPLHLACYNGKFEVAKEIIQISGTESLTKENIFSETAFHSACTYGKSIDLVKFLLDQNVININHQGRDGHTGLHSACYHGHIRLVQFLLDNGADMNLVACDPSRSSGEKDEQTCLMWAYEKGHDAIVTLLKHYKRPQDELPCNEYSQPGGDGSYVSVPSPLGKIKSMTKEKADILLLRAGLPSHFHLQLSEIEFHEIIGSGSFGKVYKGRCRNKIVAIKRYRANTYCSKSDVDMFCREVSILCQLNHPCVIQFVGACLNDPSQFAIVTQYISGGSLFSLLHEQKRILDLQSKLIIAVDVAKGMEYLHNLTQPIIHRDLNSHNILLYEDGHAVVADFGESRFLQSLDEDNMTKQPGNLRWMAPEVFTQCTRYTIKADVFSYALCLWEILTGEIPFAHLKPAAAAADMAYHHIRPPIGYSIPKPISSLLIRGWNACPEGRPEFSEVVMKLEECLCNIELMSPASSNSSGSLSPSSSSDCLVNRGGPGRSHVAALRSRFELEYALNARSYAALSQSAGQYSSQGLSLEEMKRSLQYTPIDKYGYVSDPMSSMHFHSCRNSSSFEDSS

[5] = biological target: Mitogen-activated protein kinase 11 (Homo sapiens) (UniProt Q15759); details: Compound concentration 1000.0 nM
[6] = tested on: Receptor-type tyrosine-protein kinase FLT3 (Homo sapiens), P36888 [K663Q]; details: Compound concentration 1000.0 nM
[7] = biological target: Myosin light chain kinase, smooth muscle (Homo sapiens) (UniProt Q15746); details: Compound concentration 1000.0 nM
[8] = biological target: SNF-related serine/threonine-protein kinase (Homo sapiens) (UniProt Q9NRH2); details: Compound concentration 1000.0 nM
[9] = biological target: Serine/threonine-protein kinase PAK 5 (Homo sapiens) (UniProt Q9P286); details: Compound concentration 1000.0 nM
[10] = biological target: Non-receptor tyrosine-protein kinase TYK2 (Homo sapiens) (UniProt P29597); details: Compound concentration 1000.0 nM
[11] = biological target: GABA-A receptor; anion channel (Rattus norvegicus) (UniProt O09028+P15431+P18506+P18508+P19969+P20236+P23574+P23576+P28471+P28473+P30191+P62813+P63079+P63138+Q91ZM7+Q9ES14); details: Compound concentration 10.0 uM
[12] = biological target: Homeodomain-interacting protein kinase 2 (Homo sapiens) (UniProt Q9H2X6); details: Compound concentration 1000.0 nM
Homeodomain-interacting protein kinase 2 (Homo sapiens), sequence (Q9H2X6 whole entry, looked up, canonical isoform): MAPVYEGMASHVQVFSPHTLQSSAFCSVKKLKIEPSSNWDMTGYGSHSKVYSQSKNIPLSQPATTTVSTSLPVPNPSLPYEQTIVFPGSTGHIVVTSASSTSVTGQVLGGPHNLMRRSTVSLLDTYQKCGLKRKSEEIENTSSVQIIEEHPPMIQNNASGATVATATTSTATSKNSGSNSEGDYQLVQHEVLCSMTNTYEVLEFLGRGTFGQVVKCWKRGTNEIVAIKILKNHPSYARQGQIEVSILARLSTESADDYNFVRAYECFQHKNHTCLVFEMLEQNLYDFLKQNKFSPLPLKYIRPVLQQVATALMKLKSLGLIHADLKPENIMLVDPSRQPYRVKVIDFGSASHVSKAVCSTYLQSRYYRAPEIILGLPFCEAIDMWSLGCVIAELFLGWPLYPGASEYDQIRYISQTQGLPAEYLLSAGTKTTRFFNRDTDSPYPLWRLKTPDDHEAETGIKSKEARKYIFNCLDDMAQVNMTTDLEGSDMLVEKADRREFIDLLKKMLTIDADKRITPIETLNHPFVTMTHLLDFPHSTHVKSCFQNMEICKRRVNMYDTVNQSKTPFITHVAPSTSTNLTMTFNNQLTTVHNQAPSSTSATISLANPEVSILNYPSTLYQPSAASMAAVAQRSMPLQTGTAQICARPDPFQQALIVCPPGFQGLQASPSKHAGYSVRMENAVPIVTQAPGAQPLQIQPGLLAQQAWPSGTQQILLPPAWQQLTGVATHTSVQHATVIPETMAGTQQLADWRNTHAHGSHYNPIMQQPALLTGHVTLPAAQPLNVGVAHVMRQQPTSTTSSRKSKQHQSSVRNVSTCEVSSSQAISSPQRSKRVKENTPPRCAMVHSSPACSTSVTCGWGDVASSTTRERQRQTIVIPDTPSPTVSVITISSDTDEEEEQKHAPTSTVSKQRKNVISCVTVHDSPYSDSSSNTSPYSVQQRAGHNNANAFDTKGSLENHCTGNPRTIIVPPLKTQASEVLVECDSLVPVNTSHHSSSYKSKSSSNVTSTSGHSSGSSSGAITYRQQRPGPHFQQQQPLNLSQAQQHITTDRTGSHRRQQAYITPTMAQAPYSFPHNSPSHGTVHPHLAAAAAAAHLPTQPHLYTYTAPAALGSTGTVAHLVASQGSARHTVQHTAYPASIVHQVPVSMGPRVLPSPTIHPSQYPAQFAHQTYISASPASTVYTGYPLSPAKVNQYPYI

[13] = biological target: Casein kinase I isoform epsilon (Homo sapiens) (UniProt P49674); details: Compound concentration 1000.0 nM
[14] = biological target: Cyclin-dependent kinase 2 homolog (Plasmodium falciparum (isolate 3D7)) (UniProt P61075); details: Compound concentration 1000.0 nM
[15] = biological target: Membrane-associated tyrosine- and threonine-specific cdc2-inhibitory kinase (Homo sapiens) (UniProt Q99640); details: Compound concentration 1000.0 nM
[16] = biological target: 5-hydroxytryptamine receptor 2B (Homo sapiens, UniProt P41595); details: Compound concentration 10.0 uM
[17] = biological target: Cyclin-dependent kinase 7 (Homo sapiens) (UniProt P50613); details: Compound concentration 1000.0 nM
[18] = tested on: Tyrosine-protein kinase ABL1 (Homo sapiens), P00519 [F317L]; details: Compound concentration 1000.0 nM
[19] = biological target: MAP/microtubule affinity-regulating kinase 3 (Homo sapiens) (UniProt P27448); details: Compound concentration 1000.0 nM
[20] = biological target: Ephrin type-A receptor 1 (Homo sapiens) (UniProt P21709); details: Compound concentration 1000.0 nM
Rattus norvegicus = species: Rattus norvegicus; details: Compound concentration 10.0 uM
[21] = biological target: Tyrosine-protein kinase ABL2 (Homo sapiens) (UniProt P42684); details: Compound concentration 1000.0 nM
[22] = tested on: Mast/stem cell growth factor receptor Kit (Homo sapiens), P10721 [V559D,T670I]; details: Compound concentration 1000.0 nM
Mast/stem cell growth factor receptor Kit (Homo sapiens), P10721 [V559D,T670I], sequence (P10721 whole entry V559D/T670I): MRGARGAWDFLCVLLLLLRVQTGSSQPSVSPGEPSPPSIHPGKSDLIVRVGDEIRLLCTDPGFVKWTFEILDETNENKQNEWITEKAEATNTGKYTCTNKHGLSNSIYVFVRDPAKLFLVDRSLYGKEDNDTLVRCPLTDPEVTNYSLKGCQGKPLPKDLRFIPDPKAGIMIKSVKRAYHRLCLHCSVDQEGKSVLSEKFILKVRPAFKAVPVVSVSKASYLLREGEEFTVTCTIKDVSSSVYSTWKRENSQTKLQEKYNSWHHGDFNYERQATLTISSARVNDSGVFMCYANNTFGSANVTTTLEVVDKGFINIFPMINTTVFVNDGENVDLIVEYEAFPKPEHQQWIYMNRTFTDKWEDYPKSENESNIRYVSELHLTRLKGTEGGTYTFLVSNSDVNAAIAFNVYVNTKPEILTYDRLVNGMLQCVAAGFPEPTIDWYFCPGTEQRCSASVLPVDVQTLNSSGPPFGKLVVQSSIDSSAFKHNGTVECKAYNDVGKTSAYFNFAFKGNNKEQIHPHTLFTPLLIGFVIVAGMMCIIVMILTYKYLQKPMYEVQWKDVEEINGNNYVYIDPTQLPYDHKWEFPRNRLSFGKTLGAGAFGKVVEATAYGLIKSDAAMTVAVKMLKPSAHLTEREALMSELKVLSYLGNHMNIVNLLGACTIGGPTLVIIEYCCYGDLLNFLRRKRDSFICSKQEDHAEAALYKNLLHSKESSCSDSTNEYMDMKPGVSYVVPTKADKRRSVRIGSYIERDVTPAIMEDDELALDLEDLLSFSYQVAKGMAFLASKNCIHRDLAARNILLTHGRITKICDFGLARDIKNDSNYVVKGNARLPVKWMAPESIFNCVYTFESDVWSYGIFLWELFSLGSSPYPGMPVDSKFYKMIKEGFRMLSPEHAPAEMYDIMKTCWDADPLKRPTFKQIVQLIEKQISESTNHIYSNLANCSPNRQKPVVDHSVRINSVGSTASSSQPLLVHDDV

[23] = biological target: Mitogen-activated protein kinase 9 (Homo sapiens) (UniProt P45984); details: Compound concentration 1000.0 nM
Mitogen-activated protein kinase 9 (Homo sapiens), sequence (P45984 whole entry, looked up): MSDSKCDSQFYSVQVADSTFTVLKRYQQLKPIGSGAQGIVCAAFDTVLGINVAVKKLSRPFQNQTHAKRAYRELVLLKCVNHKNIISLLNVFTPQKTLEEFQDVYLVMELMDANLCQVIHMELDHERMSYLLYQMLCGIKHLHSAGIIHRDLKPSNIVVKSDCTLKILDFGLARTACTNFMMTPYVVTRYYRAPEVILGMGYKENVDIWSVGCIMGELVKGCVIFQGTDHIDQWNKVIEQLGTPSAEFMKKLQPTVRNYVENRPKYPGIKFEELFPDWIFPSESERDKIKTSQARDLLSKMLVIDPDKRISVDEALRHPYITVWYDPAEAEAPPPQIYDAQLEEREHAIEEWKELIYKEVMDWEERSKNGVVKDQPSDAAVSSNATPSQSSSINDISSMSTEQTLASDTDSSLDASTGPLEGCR

[24] = biological target: Casein kinase II subunit alpha' (Homo sapiens) (UniProt P19784); details: Compound concentration 1000.0 nM
[25] = biological target: T1, 5-hydroxytryptamine receptor 2C (Homo sapiens) (UniProt P28335); details: Compound concentration 10.0 uM
T1 sequence (whole entry): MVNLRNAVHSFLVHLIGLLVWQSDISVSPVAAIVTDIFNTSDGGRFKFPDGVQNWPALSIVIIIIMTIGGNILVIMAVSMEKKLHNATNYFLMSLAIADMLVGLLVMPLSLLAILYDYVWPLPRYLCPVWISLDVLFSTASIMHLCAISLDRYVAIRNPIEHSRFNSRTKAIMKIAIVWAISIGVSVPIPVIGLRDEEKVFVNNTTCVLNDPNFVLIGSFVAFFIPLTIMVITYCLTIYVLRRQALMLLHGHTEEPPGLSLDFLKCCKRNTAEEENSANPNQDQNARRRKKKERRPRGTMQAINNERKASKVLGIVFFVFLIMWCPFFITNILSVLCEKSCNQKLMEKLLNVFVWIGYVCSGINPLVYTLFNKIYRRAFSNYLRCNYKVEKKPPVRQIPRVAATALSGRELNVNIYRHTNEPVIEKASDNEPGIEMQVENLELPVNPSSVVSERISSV

[26] = biological target: Cyclin-dependent kinase 13 (Homo sapiens) (UniProt Q14004); details: Compound concentration 1000.0 nM
[27] = biological target: 5'-AMP-activated protein kinase catalytic subunit alpha-1 (Homo sapiens) (UniProt Q13131); details: Compound concentration 1000.0 nM
5'-AMP-activated protein kinase catalytic subunit alpha-1 (Homo sapiens), sequence (Q13131 whole entry, looked up): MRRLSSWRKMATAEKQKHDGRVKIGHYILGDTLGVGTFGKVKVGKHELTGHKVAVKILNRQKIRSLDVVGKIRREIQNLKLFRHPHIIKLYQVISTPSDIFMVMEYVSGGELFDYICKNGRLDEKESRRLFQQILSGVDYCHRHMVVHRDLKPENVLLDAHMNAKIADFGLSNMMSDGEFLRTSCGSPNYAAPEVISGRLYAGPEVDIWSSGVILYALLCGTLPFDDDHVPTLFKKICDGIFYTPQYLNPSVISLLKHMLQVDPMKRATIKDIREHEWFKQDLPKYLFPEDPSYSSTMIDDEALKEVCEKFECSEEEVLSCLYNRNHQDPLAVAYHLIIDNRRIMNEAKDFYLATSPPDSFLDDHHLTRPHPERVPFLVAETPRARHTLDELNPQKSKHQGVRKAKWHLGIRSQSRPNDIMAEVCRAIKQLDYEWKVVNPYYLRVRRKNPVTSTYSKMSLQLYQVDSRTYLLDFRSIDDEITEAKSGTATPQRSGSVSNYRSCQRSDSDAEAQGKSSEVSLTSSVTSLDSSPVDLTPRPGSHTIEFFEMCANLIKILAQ

[28] = biological target: Uncharacterized serine/threonine-protein kinase SBK3 (Homo sapiens) (UniProt P0C264); details: Compound concentration 1000.0 nM
[29] = biological target: Aurora kinase A (Homo sapiens) (UniProt O14965); details: Compound concentration 1000.0 nM
Aurora kinase A (Homo sapiens), sequence (O14965 whole entry): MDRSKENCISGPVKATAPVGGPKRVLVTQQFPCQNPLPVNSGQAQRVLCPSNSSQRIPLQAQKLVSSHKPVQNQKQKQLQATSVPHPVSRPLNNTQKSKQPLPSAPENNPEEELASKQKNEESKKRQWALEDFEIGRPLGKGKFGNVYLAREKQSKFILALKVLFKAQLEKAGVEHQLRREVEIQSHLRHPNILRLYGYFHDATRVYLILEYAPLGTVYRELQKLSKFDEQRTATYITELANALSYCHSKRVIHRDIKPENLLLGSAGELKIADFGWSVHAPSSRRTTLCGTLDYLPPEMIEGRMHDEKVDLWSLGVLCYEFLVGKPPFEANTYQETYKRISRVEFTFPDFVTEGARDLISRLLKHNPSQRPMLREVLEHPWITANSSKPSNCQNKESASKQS

[30] = biological target: Dual specificity protein kinase CLK2 (Homo sapiens) (UniProt P49760); details: Compound concentration 1000.0 nM
[31] = biological target: Serine/threonine-protein kinase WNK4 (Homo sapiens) (UniProt Q96J92); details: Compound concentration 1000.0 nM
[32] = biological target: 1-phosphatidylinositol 3-phosphate 5-kinase (Homo sapiens) (UniProt Q9Y2I7); details: Compound concentration 1000.0 nM
[33] = biological target: Ephrin type-A receptor 5 (Homo sapiens) (UniProt P54756); details: Compound concentration 1000.0 nM
[34] = tested on: Tyrosine-protein kinase ABL1 (Homo sapiens), P00519 [Q252H]; details: Compound concentration 1000.0 nM
[35] = biological target: Sodium-dependent serotonin transporter (Homo sapiens) (UniProt P31645); details: Compound concentration 10.0 uM
Sodium-dependent serotonin transporter (Homo sapiens), sequence (P31645 whole entry, looked up): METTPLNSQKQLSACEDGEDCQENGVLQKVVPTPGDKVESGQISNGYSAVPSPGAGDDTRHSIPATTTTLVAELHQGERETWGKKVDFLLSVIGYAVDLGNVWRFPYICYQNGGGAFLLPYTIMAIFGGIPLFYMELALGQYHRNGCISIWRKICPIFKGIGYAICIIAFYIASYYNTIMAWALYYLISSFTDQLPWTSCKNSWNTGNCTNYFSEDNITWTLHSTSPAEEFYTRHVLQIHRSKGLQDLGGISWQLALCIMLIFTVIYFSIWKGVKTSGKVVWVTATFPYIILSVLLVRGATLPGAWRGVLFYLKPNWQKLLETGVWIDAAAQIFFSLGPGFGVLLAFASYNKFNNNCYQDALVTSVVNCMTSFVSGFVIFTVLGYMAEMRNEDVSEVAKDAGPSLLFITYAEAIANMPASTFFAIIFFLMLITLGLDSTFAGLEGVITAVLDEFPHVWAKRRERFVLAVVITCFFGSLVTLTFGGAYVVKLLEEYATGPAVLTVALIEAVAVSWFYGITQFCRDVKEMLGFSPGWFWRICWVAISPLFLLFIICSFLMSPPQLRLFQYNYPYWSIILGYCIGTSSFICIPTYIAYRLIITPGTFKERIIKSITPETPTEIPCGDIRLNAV

[36] = biological target: Insulin receptor-related protein (Homo sapiens) (UniProt P14616); details: Compound concentration 1000.0 nM
[37] = biological target: Mitogen-activated protein kinase kinase kinase 13 (Homo sapiens) (UniProt O43283); details: Compound concentration 1000.0 nM

| SMILES | residual activity [1] [%] | residual activity [2] [%] | residual activity [3] [%] | residual activity [4] [%] | residual activity [5] [%] | residual activity [6] [%] | residual activity [7] [%] | residual activity [8] [%] | residual activity [9] [%] | residual activity [10] [%] | inhibition [11] [%] | residual activity [12] [%] | residual activity [13] [%] | residual activity [14] [%] | residual activity [15] [%] | inhibition [16] [%] | residual activity [17] [%] | residual activity [18] [%] | residual activity [19] [%] | residual activity [20] [%] | also measured |
| --- | --- | --- | --- | --- | --- | --- | --- | --- | --- | --- | --- | --- | --- | --- | --- | --- | --- | --- | --- | --- | --- |
| O=C(Nc1cccnn1)N1CCC(=Cc2cccc(Oc3ccc(C(F)(F)F)cn3)c2)CC1 | 98 | 75 | 81 | 100 | 83 | 100 | 100 | 100 | 100 | 100 | 7.35 | 100 | 100 | 100 | 100 | 55.7 | 100 | 94 | 89 | 100 | inhibition (Rattus norvegicus): 59.6%; residual activity [21]: 99%; residual activity [22]: 96%; residual activity [23]: 100%; residual activity [24]: 100%; inhibition [25]: 64.6%; residual activity [26]: 100%; residual activity [27]: 88%; residual activity [28]: 100%; residual activity [29]: 100%; residual activity [30]: 66%; residual activity [31]: 96%; residual activity [32]: 100%; residual activity [33]: 98%; residual activity [34]: 75%; inhibition [35]: 20.2%; residual activity [36]: 100%; residual activity [37]: 100% |
| O=C(Nc1cccnn1)N1CC(C/C=C/c2cncc(Oc3ccc(C(F)(F)F)cn3)n2)C1 | 100 | 64 | 100 | 100 | 100 | 100 | 73 | 100 | 95 | 82 | 17.3 | 89 | 100 | 93 | 100 | 2.28 | 81 | 67 | 100 | 100 | inhibition (Rattus norvegicus): 25.6%; residual activity [21]: 100%; residual activity [22]: 100%; residual activity [23]: 72%; residual activity [24]: 100%; inhibition [25]: 1.89%; residual activity [26]: 98%; residual activity [27]: 100%; residual activity [28]: 100%; residual activity [29]: 100%; residual activity [30]: 100%; residual activity [31]: 0%; residual activity [32]: 100%; residual activity [33]: 85%; residual activity [34]: 100%; inhibition [35]: 32.7%; residual activity [36]: 100%; residual activity [37]: 0% |
